By pEC50 is commonly meant the EC50 on a negative log10 scale, so that one unit is a factor of ten.

pEC50: −log10 of the molar value.

For one assay, the system named is HCV pseudoparticles (genotype 1a HCV E1 and E2 envelope, H77C isolate). Put plainly: microbe, parasite or virus in culture. It is filed as cell-based. To be noted: Hepatitis C virus, Huh-7, 48 h, HCV pseudoparticle infection of Huh7 cells, luciferase 2 days after infection; average of duplicates.
Take `COc1cc(NC(=O)C(=O)NC[C@H](NC(=O)c2ccc(Nc3nc(NC4(c5ccc(Cl)cc5)CC4)nc(OCC(F)(F)F)n3)cc2)C(=O)O)ccn1` [Compound 1348]: the pEC50 was 9.30.
In turn, `O=C(NC[C@H](NC(=O)c1ccc(Nc2nc(NC3(c4ccc(Cl)cc4)CC3)nc(OCC(F)(F)F)n2)cc1)C(=O)O)C(=O)Nc1cc[nH]n1` [Compound 1353] had a pEC50 of 8.78.
`COc1ccc(NC(=O)C(=O)NC[C@H](NC(=O)c2ccc(Nc3nc(NC4(c5ccc(Cl)cc5)CC4)nc(OCC(F)(F)F)n3)cc2)C(=O)O)cc1` [Compound 1362] had a pEC50 of 9.52.
Consider `COC(=O)[C@@H](CCNC(=O)C(=O)NCC1(c2ccccc2)CC1)NC(=O)c1ccc(Nc2nc(NC3(c4ccc(Cl)cc4)CC3)nc(OCC(F)(F)F)n2)cc1` [Compound 1378], for which the pEC50 was 9.64.
On to `CCc1nccn1CC1(CNC(=O)C(=O)NCC[C@@H](NC(=O)c2ccc(Nc3nc(NC4(c5ccc(Cl)cc5)CC4)nc(OCC(F)(F)F)n3)cc2)C(=O)OC)CC1` [Compound 1386], for which the pEC50 was 8.56.

The same assay, now with this note: Hepatitis C virus, Huh-7, 48 h, read-out: Activity (EC50 class), HCV pseudoparticle infection of Huh7 cells, luciferase 2 days after infection; EC50 expressed as class A/B.
`O=C(NCC[C@H](NC(=O)c1ccc(Nc2nc(NC3(c4ccc(Cl)cc4)CC3)nc(OCC(F)(F)F)n2)cc1)C(=O)O)C(=O)NCC1CCCc2ccccc21` (stereo partly drawn) [Compound 1343]: the pEC50 was 8.00 to 11.00.
For the compound `Cc1nccn1CCNC(=O)C(=O)NCC[C@H](NC(=O)c1ccc(Nc2nc(NC3(c4ccc(Cl)cc4)CC3)nc(OCC(F)(F)F)n2)cc1)C(=O)O` [Compound 1344], the pEC50 is 8.00 to 11.00.
For the compound `O=C(NCC[C@H](NC(=O)c1ccc(Nc2nc(NC3(c4ccc(Cl)cc4)CC3)nc(OCC(F)(F)F)n2)cc1)C(=O)O)C(=O)NCC1CCc2ccccc21` (stereo partly drawn) [Compound 1345], the pEC50 was 8.00 to 11.00.
The same measure, in the same setting: then `O=C(NCC[C@H](NC(=O)c1ccc(Nc2nc(NC3(c4ccc(Cl)cc4)CC3)nc(OCC(F)(F)F)n2)cc1)C(=O)O)C(=O)NC1(Cc2ccccc2)CC1` [Compound 1346], with 8.00 to 11.00.
In the case of `COc1ncccc1NC(=O)C(=O)NC[C@H](NC(=O)c1ccc(Nc2nc(NC3(c4ccc(Cl)cc4)CC3)nc(OCC(F)(F)F)n2)cc1)C(=O)O` [Compound 1347], the pEC50 was 8.00 to 11.00.
As for `COc1cc(NC(=O)C(=O)NC[C@H](NC(=O)c2ccc(Nc3nc(NC4(c5ccc(Cl)cc5)CC4)nc(OCC(F)(F)F)n3)cc2)C(=O)O)ccn1` [Compound 1348], the pEC50 was 8.00 to 11.00.
On to `COc1ccc(NC(=O)C(=O)NC[C@H](NC(=O)c2ccc(Nc3nc(NC4(c5ccc(Cl)cc5)CC4)nc(OCC(F)(F)F)n3)cc2)C(=O)O)cn1` [Compound 1349], for which the pEC50 is 8.00 to 11.00.
As for `O=C(NC[C@H](NC(=O)c1ccc(Nc2nc(NC3(c4ccc(Cl)cc4)CC3)nc(OCC(F)(F)F)n2)cc1)C(=O)O)C(=O)Nn1cnnc1` [Compound 1350], the pEC50 is 6.00 to 8.00.
Regarding `Cn1ccc(NC(=O)C(=O)NC[C@H](NC(=O)c2ccc(Nc3nc(NC4(c5ccc(Cl)cc5)CC4)nc(OCC(F)(F)F)n3)cc2)C(=O)O)n1` [Compound 1351], the pEC50 was 8.00 to 11.00.
In the case of `Cn1ccnc1NC(=O)C(=O)NC[C@H](NC(=O)c1ccc(Nc2nc(NC3(c4ccc(Cl)cc4)CC3)nc(OCC(F)(F)F)n2)cc1)C(=O)O` [Compound 1352], the pEC50 is 8.00 to 11.00.
Turning to `O=C(NC[C@H](NC(=O)c1ccc(Nc2nc(NC3(c4ccc(Cl)cc4)CC3)nc(OCC(F)(F)F)n2)cc1)C(=O)O)C(=O)Nc1cc[nH]n1` [Compound 1353], the pEC50 was 8.00 to 11.00.
On the same count and under the same terms, next, `O=C(NC[C@H](NC(=O)c1ccc(Nc2nc(NC3(c4ccc(Cl)cc4)CC3)nc(OCC(F)(F)F)n2)cc1)C(=O)O)C(=O)Nc1cn[nH]c1` [Compound 1354]: 8.00 to 11.00.
In the case of `Cn1cc(NC(=O)C(=O)NC[C@H](NC(=O)c2ccc(Nc3nc(NC4(c5ccc(Cl)cc5)CC4)nc(OCC(F)(F)F)n3)cc2)C(=O)O)cn1` [Compound 1356], the pEC50 is 8.00 to 11.00.
For the compound `O=C(NC[C@H](NC(=O)c1ccc(Nc2nc(NC3(c4ccc(Cl)cc4)CC3)nc(OCC(F)(F)F)n2)cc1)C(=O)O)C(=O)Nc1cccc(F)c1` [Compound 1357], the pEC50 was 8.00 to 11.00.
For `COc1cccc(NC(=O)C(=O)NC[C@H](NC(=O)c2ccc(Nc3nc(NC4(c5ccc(Cl)cc5)CC4)nc(OCC(F)(F)F)n3)cc2)C(=O)O)c1` [Compound 1358], the pEC50 was 8.00 to 11.00.
Consider `O=C(NC[C@H](NC(=O)c1ccc(Nc2nc(NC3(c4ccc(Cl)cc4)CC3)nc(OCC(F)(F)F)n2)cc1)C(=O)O)C(=O)Nc1cccc(C(F)(F)F)c1` [Compound 1359], for which the negative-log EC50 (pEC50) was 8.00 to 11.00.
On to `Cc1ccc(NC(=O)C(=O)NC[C@H](NC(=O)c2ccc(Nc3nc(NC4(c5ccc(Cl)cc5)CC4)nc(OCC(F)(F)F)n3)cc2)C(=O)O)cc1` [Compound 1360], for which the pEC50 was 8.00 to 11.00.
As to `O=C(NC[C@H](NC(=O)c1ccc(Nc2nc(NC3(c4ccc(Cl)cc4)CC3)nc(OCC(F)(F)F)n2)cc1)C(=O)O)C(=O)Nc1ccccc1F` [Compound 1361], the pEC50 was 8.00 to 11.00.
The same measure, in the same setting: next, `COc1ccc(NC(=O)C(=O)NC[C@H](NC(=O)c2ccc(Nc3nc(NC4(c5ccc(Cl)cc5)CC4)nc(OCC(F)(F)F)n3)cc2)C(=O)O)cc1` [Compound 1362]: 8.00 to 11.00; `O=C(NC[C@H](NC(=O)c1ccc(Nc2nc(NC3(c4ccc(Cl)cc4)CC3)nc(OCC(F)(F)F)n2)cc1)C(=O)O)C(=O)Nc1ccc(C(F)(F)F)cc1` [Compound 1363]: 8.00 to 11.00; `COc1ccccc1NC(=O)C(=O)NC[C@H](NC(=O)c1ccc(Nc2nc(NC3(c4ccc(Cl)cc4)CC3)nc(OCC(F)(F)F)n2)cc1)C(=O)O` [Compound 1364]: 8.00 to 11.00.
The same measure, in the same setting: next, `CN(C(=O)C(=O)NC[C@H](NC(=O)c1ccc(Nc2nc(NC3(c4ccc(Cl)cc4)CC3)nc(OCC(F)(F)F)n2)cc1)C(=O)O)c1ccccc1` [Compound 1365]: 8.00 to 11.00; `O=C(NC[C@H](NC(=O)c1ccc(Nc2nc(NC3(c4ccc(Cl)cc4)CC3)nc(OCC(F)(F)F)n2)cc1)C(=O)O)C(=O)Nc1cccnc1` [Compound 1367]: 8.00 to 11.00; `Cn1nccc1NC(=O)C(=O)NC[C@H](NC(=O)c1ccc(Nc2nc(NC3(c4ccc(Cl)cc4)CC3)nc(OCC(F)(F)F)n2)cc1)C(=O)O` [Compound 1368]: 8.00 to 11.00.
Same read-out and setting: next, `CCOC(=O)[C@H](CCNC(=O)C(=O)NCC1CC1)NC(=O)c1ccc(Nc2nc(NC3(c4ccc(Cl)cc4)CC3)nc(OCC(F)(F)F)n2)cc1` [Compound 1369]: 8.00 to 11.00; `COC(=O)[C@H](CCNC(=O)C(=O)NC(COCc1ccccc1)C1CC1)NC(=O)c1ccc(Nc2nc(NC3(c4ccc(Cl)cc4)CC3)nc(OCC(F)(F)F)n2)cc1` (stereo partly drawn) [Compound 1370]: 8.00 to 11.00.
Take `COCC(NC(=O)C(=O)NCC[C@H](NC(=O)c1ccc(Nc2nc(NC3(c4ccc(Cl)cc4)CC3)nc(OCC(F)(F)F)n2)cc1)C(=O)OC)C1CC1` (stereo partly drawn) [Compound 1371]: the pEC50 is 8.00 to 11.00.
`COC(=O)[C@H](CCNC(=O)C(=O)NCC1CC1(Cl)Cl)NC(=O)c1ccc(Nc2nc(NC3(c4ccc(Cl)cc4)CC3)nc(OCC(F)(F)F)n2)cc1` (stereo partly drawn) [Compound 1372]: the pEC50 was 8.00 to 11.00.
Turning to `COC(=O)[C@H](CCNC(=O)C(=O)NCC1CC1c1cc(F)ccc1F)NC(=O)c1ccc(Nc2nc(NC3(c4ccc(Cl)cc4)CC3)nc(OCC(F)(F)F)n2)cc1` (stereo partly drawn) [Compound 1373], the pEC50 was 8.00 to 11.00.
Still for that read-out and setting: next, `COCC1(CNC(=O)C(=O)NCC[C@H](NC(=O)c2ccc(Nc3nc(NC4(c5ccc(Cl)cc5)CC4)nc(OCC(F)(F)F)n3)cc2)C(=O)OC)CC1` [Compound 1374]: 8.00 to 11.00.
As for `COC(=O)[C@H](CCNC(=O)C(=O)NCC1(C(=O)OC)CC1)NC(=O)c1ccc(Nc2nc(NC3(c4ccc(Cl)cc4)CC3)nc(OCC(F)(F)F)n2)cc1` [Compound 1375], the pEC50 is 8.00 to 11.00.
As to `COC(=O)[C@@H](CCNC(=O)C(O)NCC1CC1c1cccc(F)c1)NC(=O)c1ccc(Nc2nc(NC3(c4ccc(Cl)cc4)CC3)nc(OCC(F)(F)F)n2)cc1` (stereo partly drawn) [Compound 1376], the pEC50 was 8.00 to 11.00.
As to `COC(=O)[C@H](CCNC(=O)C(=O)N[C@H](C)C1CC1)NC(=O)c1ccc(Nc2nc(NC3(c4ccc(Cl)cc4)CC3)nc(OCC(F)(F)F)n2)cc1` [Compound 1377], the pEC50 was 8.00 to 11.00.
Turning to `COC(=O)[C@@H](CCNC(=O)C(=O)NCC1(c2ccccc2)CC1)NC(=O)c1ccc(Nc2nc(NC3(c4ccc(Cl)cc4)CC3)nc(OCC(F)(F)F)n2)cc1` [Compound 1378], the pEC50 was 8.00 to 11.00.
For the compound `CCOCC1(CNC(=O)C(=O)NCC[C@@H](NC(=O)c2ccc(Nc3nc(NC4(c5ccc(Cl)cc5)CC4)nc(OCC(F)(F)F)n3)cc2)C(=O)OC)CC1` [Compound 1379], the pEC50 was 8.00 to 11.00.
In the case of `COC(=O)[C@@H](CCNC(=O)C(=O)NCC1(CO)CC1)NC(=O)c1ccc(Nc2nc(NC3(c4ccc(Cl)cc4)CC3)nc(OCC(F)(F)F)n2)cc1` [Compound 1380], the pEC50 is 8.00 to 11.00.
Turning to `COC(=O)[C@@H](CCNC(=O)C(=O)NCC1(NC(=O)OC(C)(C)C)CC1)NC(=O)c1ccc(Nc2nc(NC3(c4ccc(Cl)cc4)CC3)nc(OCC(F)(F)F)n2)cc1` [Compound 1381], the negative-log EC50 (pEC50) was 8.00 to 11.00.
In the case of `COC(=O)[C@@H](CCNC(=O)C(=O)NCC1(CN2CCOCC2)CC1)NC(=O)c1ccc(Nc2nc(NC3(c4ccc(Cl)cc4)CC3)nc(OCC(F)(F)F)n2)cc1` [Compound 1382], the pEC50 was 8.00 to 11.00.
Turning to `COC(=O)[C@@H](CCNC(=O)C(=O)NCC1(Cn2nc(C)cc2C)CC1)NC(=O)c1ccc(Nc2nc(NC3(c4ccc(Cl)cc4)CC3)nc(OCC(F)(F)F)n2)cc1` [Compound 1383], the pEC50 was 8.00 to 11.00.
Turning to `COC(=O)[C@@H](CCNC(=O)C(=O)NCC1(CN2CCCC2)CC1)NC(=O)c1ccc(Nc2nc(NC3(c4ccc(Cl)cc4)CC3)nc(OCC(F)(F)F)n2)cc1` [Compound 1384], the pEC50 is 8.00 to 11.00.
Consider `COC(=O)[C@@H](CCNC(=O)C(=O)NCC1(Cn2ccnc2)CC1)NC(=O)c1ccc(Nc2nc(NC3(c4ccc(Cl)cc4)CC3)nc(OCC(F)(F)F)n2)cc1` [Compound 1385], for which the pEC50 was 8.00 to 11.00.
In the case of `CCc1nccn1CC1(CNC(=O)C(=O)NCC[C@@H](NC(=O)c2ccc(Nc3nc(NC4(c5ccc(Cl)cc5)CC4)nc(OCC(F)(F)F)n3)cc2)C(=O)OC)CC1` [Compound 1386], the pEC50 was 8.00 to 11.00.
For `COC(=O)[C@@H](CCNC(=O)C(=O)NCC1(COc2ccccc2)CC1)NC(=O)c1ccc(Nc2nc(NC3(c4ccc(Cl)cc4)CC3)nc(OCC(F)(F)F)n2)cc1` [Compound 1387], the pEC50 was 8.00 to 11.00.
As to `COC(=O)[C@@H](CCNC(=O)C(=O)NCC1(CN2CCN(C)CC2)CC1)NC(=O)c1ccc(Nc2nc(NC3(c4ccc(Cl)cc4)CC3)nc(OCC(F)(F)F)n2)cc1` [Compound 1388], the pEC50 is 8.00 to 11.00.
Consider `COC(=O)[C@@H](CCNC(=O)C(=O)NCC1CC1c1ccc(F)cc1)NC(=O)c1ccc(Nc2nc(NC3(c4ccc(Cl)cc4)CC3)nc(OCC(F)(F)F)n2)cc1` (stereo partly drawn) [Compound 1389], for which the pEC50 was 8.00 to 11.00.
As to `COC(=O)[C@@H](CCNC(=O)C(=O)NC(CCO)C1CC1)NC(=O)c1ccc(Nc2nc(NC3(c4ccc(Cl)cc4)CC3)nc(OCC(F)(F)F)n2)cc1` (stereo partly drawn) [Compound 1390], the pEC50 was 8.00 to 11.00.
